The values below come from ChEMBL document CHEMBL1149930, “3-Hydroxy-19-nor-17-pregna-1,3,5(10)-triene-21,17-carbolactone as inhibitor of 17-hydroxysteroid dehydrogenase type 2” (Bioorg Med Chem Lett, 1994).

Assay [1] addresses T1, 17-beta-hydroxysteroid dehydrogenase type 2 (Homo sapiens, UniProt P37059).
T1 sequence (P37059 whole entry): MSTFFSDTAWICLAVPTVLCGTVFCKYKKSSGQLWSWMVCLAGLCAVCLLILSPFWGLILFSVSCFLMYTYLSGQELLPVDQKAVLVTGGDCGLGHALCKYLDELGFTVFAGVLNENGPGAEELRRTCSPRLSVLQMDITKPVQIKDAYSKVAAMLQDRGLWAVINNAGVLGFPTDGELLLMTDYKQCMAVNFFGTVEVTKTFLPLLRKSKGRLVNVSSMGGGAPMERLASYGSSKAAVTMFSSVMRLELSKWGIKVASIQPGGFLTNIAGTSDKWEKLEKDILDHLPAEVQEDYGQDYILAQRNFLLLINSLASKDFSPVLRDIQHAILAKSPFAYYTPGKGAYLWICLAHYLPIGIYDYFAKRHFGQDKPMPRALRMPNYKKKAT
Put plainly: Inhibitory activity against human placenta 17-beta-hydroxysteroid dehydrogenase type 2 (17-beta-HSD type 2).

For assay [2], the target named is T1, 17-beta-hydroxysteroid dehydrogenase type 2. Put plainly: Inhibitory constant against human placenta 17-beta-hydroxysteroid dehydrogenase type 2 (17-beta-HSD type 2).

One may read the IC50 as the point on the concentration scale where inhibition reaches its midpoint. Read a low IC50 as greater potency. As for `C[C@]12CCC3C4=CCC(=O)C=C4CCC3C1CC[C@@]21CCC(=O)O1` (stereo partly drawn), in assay [1], the IC50 came out at 1410 nM. Broadly, the Ki is the dissociation constant of the complex between target and ligand, obtained from inhibition or displacement. In assay [2], `C[C@]12CC[C@@H]3c4ccc(O)cc4CC[C@H]3[C@@H]1CC[C@@]21CCC(=O)O1` gave an inhibition constant Ki of 250 nM. For the same compound, the IC50 in assay [1] was 270 nM.
